Here are results for one molecule from patent publication US6890954B1, “Uses of 2-bromopalmitate in the treatment of autoimmune disease” (priority 1999, dated 2005).

Holding throughout (format): cell-based
For experiment [1], the system named is T cell receptor signaling. The experiment is described as follows: TCR-mediated tyrosine phosphorylation in Jurkat T cells (anti-phosphotyrosine immunoblot). As to the method:
(§1) Jurkat T cells (2×10^6−1×10^7) were centrifuged at 1,000×g for 5 minutes, rinsed with RPMI, resuspended in RPMI supplemented with 2% dialyzed FBS, 0.5% defatted BSA, and incubated with or without 100 μM 2-bromopalmitate at 8×10^5 cells/ml for 3 hours. The cells were centrifuged, washed with RPMI and resuspended in RPMI at 1×10^7−1×10^8 cells/ml. The cells were then activated with anti-CD3 OKT3 mAb (0.3 mg/ml) for 3 min at 37° C., quickly spun down, washed once with cold RPMI and once with cold STE, and lysed in RIPA Samples were solubilized in 1× sample buffer containing 5% β-mercaptoethanol and subjected to SDS-PAGE, followed by immunoblotting with anti-phosphotyrosine antibody (PY99). For analysis of specific proteins, RIPA lysates were immunoprecipitated with the specific antibodies O/N, and immunoblotted for phosphotyrosine. Alternatively, proteins were immunoprecipitated with agarose-conjugated anti phosphotyrosine antibody and blotted for the specific proteins.
Jurkat cells were incubated with 2-bromopalmitate and activated with OKT3 anti-CD3 antibody. Cell lysates were analyzed by immunoblotting with anti phosphotyrosine antibodies. In control cells, stimulation with OKT3 antibodies induced tyrosine phosphorylation of multiple proteins (Fig 5A). […] The most dramatic effect was on a 36 kDa protein, which represents LAT (see below).
In general terms: A western blot detects proteins with antibodies after separation by electrophoresis.

In experiment [2] the test system is ZAP-70. As to the kind of experiment: CD3-mediated tyrosine phosphorylation of ZAP-70 in Jurkat cells. As to conditions: 100 μM 3 hours, OKT3. As to the method: as §1
In order to identify the individual proteins whose tyrosine phosphorylation is affected by 2-bromopalmitate, lysates were immunoprecipitated with a panel of specific antibodies, and immunoblotted for phosphotyrosine. Alternatively, lysates were immunoprecipitated with an antiphosphotyrosine antibody, and blotted with antibodies to specific proteins.

Experiment [3] deals with Fyn. The experiment is described as follows: Localization of Fyn to Triton X-100 insoluble fractions in COS-1 cells. As to conditions: COS-1, 1% Triton X-100 extraction; untreated: majority detergent resistant. On the procedure: Isolation of Triton X-100 resistant and soluble fractions was carried out as described previously (12). Isolation of detergent resistant microdomains by sucrose gradients were carried out as follows (19): Jurkat cells (5×10^7) were treated with 2-bromopalmitate, activated with OKT3 mAb as described above, and lysed in 1 ml lysis buffer (25 mM MES pH 6.5, 150 mM NaCl, 0.5% Triton X-100, 1 mM Na3VO4) supplemented with protease inhibitors for 30 minutes at 0° C. After homogenizing 10 times with a loose fit Dounce homogenizer, lysates were mixed with 1 ml 85% sucrose in MBS (25 mM MES pH 6.5, 150 mM NaCl), and overlayered with 6 ml 30% sucrose in MBS, then with 4 ml 5% sucrose in MBS. Following centrifugation for 16 hours at 145,000 g in an SW40 rotor, 1 ml fractions were collected and analyzed by PAGE and immunoblotting with anti-Fyn, anti-LAT, or anti-Lck antibodies.
Previous experiments have shown that following rapid membrane binding of newly synthesized Fyn, there is a slower partitioning of Fyn (10-20 minutes) to regions of the plasma membrane that are resistant to Triton X-100 extraction at 4° C. (12). Therefore the effect of 2-bromopalmitate on the localization of Fyn to Triton X-100 insoluble fractions was examined. Transfected COS-1 cells were left untreated or treated with 2-bromopalmitate as described above. […]

Experiment [4] has as its system Fyn. As to the kind of experiment: Subcellular fractionation (P100/S100) of Fyn in COS-1 cells. As to the method:
Each 60 mm plate of Fyn transfected COS-1 cells was starved for […] in DMEM containing 2.5% FBS and 0.5% defatted BSA with or without 100 μM 2-bromopalmitate. After overnight culture at 37° C., the cells were fractionated into P100 and S100 fractions, immunoprecipitated with anti-Fyn antibody, subjected to SDS-PAGE, and immunoblotted with anti-Fyn antibody as previously described (9,12,13).
For analysis of newly synthesized Fyn, cells were cultured overnight as descibed above, then starved for 1 hr in DMEM minus methionine and cysteine containing 2% dialyzed FBS, 0.5% defatted BSA with or without 100 μM 2-bromopalmitate. Cells were labeled for 5 minutes with Trans^35S-Label (ICN, Irvine, Calif.), then fractionated as described above. Gels were treated for 20 minutes with 1M salicylic acid prior to drying. The Gαo(10)-Fyn chimera was labeled for 5 min and GAP-43 Fyn chimera was labeled for 2 hours and fractionated according to the above conditions.
Newly synthesized Fyn becomes plasma membrane bound within 5 minutes after biosynthesis (12). The rapid membrane targeting is dependent on dual fatty acylation of Fyn with myristate and palmitate. The effect of 2-bromopalmitate on the ability of newly synthesized Fyn to localize to membranes was next examined. Transfected COS-1 cells were incubated for 12-16 hours with or without 100 μM 2-bromopalmitate. […]

For the molecule `CCCCCCCCCCCCCCC(Br)C(=O)O` (stereo not shown) [2-bromopalmitate], in experiment [1] (100 μM 3 hours, OKT3 3 min), the “OKT3-induced tyrosine phosphorylation of several proteins” value is reported as “significantly inhibited”. Also, the “reduction of tyrosine phosphorylation on the signaling molecules examined, basal activation taken into account” value in experiment [1] (FIG. 5B) is listed as 70-100%. The “tyrosine phosphorylation in the presence of 2-bromopalmitate alone (no stimulation), some proteins” value in experiment [1] (unactivated) is reported as “Low to moderate increases”. Also, the ZAP-70 phosphorylation inhibited in experiment [2] is listed as 50%. Besides, the “Fyn association with detergent resistant vs soluble fraction” value in experiment [3] is given as “mostly soluble”. Besides, the “newly synthesized Fyn remaining cytosolic” value in experiment [4] (COS-1, 100 μM for 12-16 hours, 5 min 35S label, untreated 90% membrane bound) is 50%. In addition, the “steady-state Fyn fractionating in the cytosol” value in experiment [4] (COS-1, 100 μM, Western blot, data not shown) was determined as 50%.
